Source: patent EP1724268A1, “COMPOUND HAVING TGF-BETA INHIBITORY ACTIVITY AND PHARMACEUTICAL COMPOSITION CONTAINING SAME” (KIRIN BEER KABUSHIKI KAISHA, priority 2004, dated 2005)
Like-named read-outs stand apart in the source and are kept apart here.

Test system: TGFβ signal
Test: TGFβ signal inhibitory activity, (SBE)4-Luc reporter in A549 cells (Test Examples 1A and 1B)
Format: cell-based, human
Settings: Homo sapiens; for inhibition at 1 µM: test compound 1 µM
Summary of the method: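 Compounds at 3 µM and 10 µM (some 1 µM) were added with 2 ng/ml TGFβ-1 to A549 cells stably expressing an SBE-driven luciferase, then cultured 4 hr. Chemiluminescent luciferase signal gave % inhibition versus TGFβ-alone and no-TGFβ controls.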

[1] = A549, test compound 3 µM, TGFβ-1 2 ng/ml, 4 hr, Table 1A, read-out: TGFβ inhibition rate, %
[2] = A549, test compound 10 µM, TGFβ-1 2 ng/ml, 4 hr, Table 1A, read-out: TGFβ inhibition rate, %
[3] = A549, 3 µM, compounds of Reference Examples (Test Example 1B), read-out: TGFβ inhibition rate, %
[4] = A549, 10 µM, compounds of Reference Examples (Test Example 1B), read-out: TGFβ inhibition rate, %
[5] = A549, test compound 3 µM, Reference Examples, Table 1B, read-out: TGFβ inhibition rate, %
[6] = A549, test compound 10 µM, Reference Examples, Table 1B, read-out: TGFβ inhibition rate, %
[7] = A549, TGFβ-1 2 ng/ml, 4 hr, Table 1A, read-out: TGFβ inhibition rate, %

SMILES | inhibition at 3 µM [3] [%] | inhibition at 10 µM [4] [%] | inhibition at 3 µM [5] [%] | inhibition at 10 µM [6] [%] | other results
CCc1ccc(Oc2ccnc3ccc(OCCOC(=O)C(C)(C)CC)cc23)c(-c2ncccn2)n1 [Compound 224, 2-[4-(6-Ethyl-2-pyrimidin-2-yl-pyridin-3-yloxy)-quinolin-6-yloxy]-ethyl 2,2-dimethyl-butanoate] | – | – | – | – | inhibition at 3 µM [1]: 95%; inhibition at 10 µM [2]: 100%
COc1cc2nccc(Oc3ccc4oc(=O)cc(C)c4c3)c2cc1OC [r306] | 20 | 53 | – | – | –
COc1cc2c(Oc3ccc(C)cc3C(=O)c3ccccc3)ccnc2cc1OCCCN1CCNCC1 [r137] | – | – | 100 | 100 | –
Cc1cc(Oc2ccnc3ccc(-c4ccccc4N)cc23)c(-c2ccccn2)nc1C [Compound 9, 2-[4-(5,6-Dimethyl-[2,2']bipyridin-3-yloxy)-quinolin-6-yl]-phenylamine] | – | – | – | – | inhibition at 3 µM [1]: 87%; inhibition at 10 µM [2]: 100%
COc1cc2c(Oc3ccc(C)cc3C(=O)c3ccccc3)ccnc2cc1OCCCCN1CCN(C)CC1 [Compound r148] | – | – | 99 | 100 | –
COc1cc2nccc(Oc3ccc(C)cc3C(=O)C(C)C)c2cc1OC [Compound r53] | – | – | 97 | 100 | –
COc1cc2nccc(Oc3ccc(SC)nc3-c3cccnc3)c2cc1OC [r267] | 34 | 83 | – | – | –
COc1cc2c(Oc3cc(C)c(C)nc3-c3nc(C)c(C)s3)ccnc2cc1OCCCO [Compound r462] | 99 | – | – | – | –
COc1cc2nccc(Oc3cc4ccccc4nc3-c3cccc(CO)c3)c2cc1OC [Compound r284, {3-[3-(6,7-Dimethoxy-quinolin-4-yloxy)-quinolin-2-yl]-phenyl}-methanol] | 96 | 100 | – | – | –
Cc1cc(Oc2ccnc3cccnc23)c(-c2ccccn2)nc1C [Compound 30, 4-(5,6-Dimethyl-[2,2']bipyridin-3-yloxy)-[1,5]naphthyridine] | – | – | – | – | inhibition at 3 µM [1]: 84%; inhibition at 10 µM [2]: 99%
Cc1cc(Oc2ccnc3cc(Cl)c(C(N)=O)cc23)c(-c2ccccn2)nc1C [Compound 146, 7-Chloro-4-(5,6-dimethyl-[2,2']bipyridinyl-3-yloxy)-quinoline-6-carboxylic acid amide] | – | – | – | – | inhibition at 3 µM [1]: 54%; inhibition at 10 µM [2]: 95%
COc1cc2c(Oc3cc(C)c(C)nc3-c3ccc(C)cn3)ccnc2cc1OCC(O)CO (stereo not drawn) [Compound r463] | 77 | 99 | – | – | –
COc1cc2nccc(Oc3cc(C)c(Cl)cc3C(=O)c3ccccc3)c2cc1OC [r75] | – | – | 97 | 100 | –
COc1cc2nccc(Oc3ccc(C)nc3-c3cncnc3)c2cc1OC [Compound r265] | 45 | 85 | – | – | –
COc1cc2nccc(Oc3cc(C)nc4ccccc34)c2cc1OC [Compound r309] | 41 | 79 | – | – | –
COc1cc2c(Oc3cc4ccccc4nc3C)ccnc2cc1OCCCCl [Compound r375] | 84 | 100 | – | – | –
CCOC(=O)c1c(C)cccc1Oc1ccnc2cc(OC)c(OC)cc12 [Compound r92] | – | – | 25 | 82 | –
COc1cc2nccc(Oc3cnc4ccccc4c3)c2cc1OC [r275] | 45 | 90 | – | – | –
COc1cc2nccc(Oc3cc4ccccc4nc3-c3cc(C)c(Cl)s3)c2cc1OC [r290] | 18 | 57 | – | – | –
COc1cc2c(Oc3ccc(C)cc3C(=O)c3ccccc3)ccnc2cc1OCCN1CCC(N2CCCC2)CC1 [Compound r127] | – | – | 99 | 100 | –
CCN(CC)CCCCOc1cc2nccc(Oc3ccc(C)cc3C(=O)c3ccccc3)c2cc1OC [r143] | – | – | 97 | 100 | –
CCCOC(=O)c1cc2ccccc2cc1Oc1ccnc2cc(OC)c(OC)cc12 [r201] | 79 | 100 | – | – | –
CCc1ccc(Oc2ccnc3ccc(OCc4ccccc4)cc23)c(-c2ccccn2)n1 [Compound 183, 3-(6-Benzyloxy-quinolin-4-yloxy)-6-ethyl-[2,2']bipyridine] | – | – | – | – | inhibition at 3 µM [1]: 100%; inhibition at 10 µM [2]: 100%
COc1cc2nccc(Oc3cc4cccnc4nc3-c3ccccc3)c2cc1C(=O)NCc1ccccc1 [Compound 65, 7-Methoxy-4-(2-phenyl-[1,8]naphthyridin-3-yloxy)-quinoline-6-carboxylate benzylamide] | – | – | – | – | inhibition at 3 µM [1]: 97%; inhibition at 10 µM [2]: 100%
COc1cc2nccc(Oc3ccc(C)nc3-c3cn[nH]c3)c2cc1OC [r434] | 100 | 100 | – | – | –
COc1cc2c(Oc3cc(C)c(C)nc3-c3nc(C)c(C)s3)ccnc2cc1OCc1ccccc1 [Compound r454] | 41 | 75 | – | – | –

SMILES | inhibition at 3 µM [3] [%] | inhibition at 10 µM [4] [%] | inhibition at 3 µM [5] [%] | inhibition at 10 µM [6] [%] | other results
COc1cc2nccc(Oc3cc4ccccc4nc3-c3ncccn3)c2cc1OC [Compound 92, 6,7-Dimethoxy-4-(2-pyrimidin-2-yl-quinolin-3-yloxy)-quinoline] | – | – | – | – | inhibition at 1 µM [7]: 62%; inhibition at 3 µM [1]: 98%
COc1cc2nccc(Oc3ccccc3Cc3ccccc3)c2cc1OC [Compound r1, 4-(2-Benzylphenoxy)-6,7-dimethoxyquinoline] | – | – | 5 | 53 | –
COc1cc2nccc(Oc3ccc(C)cc3C(=O)c3ccno3)c2cc1OC [Compound r61] | – | – | 61 | 98 | –
COc1cc2c(Oc3cc4ccccc4nc3C)ccnc2cc1OCCN1CCOCC1 [Compound r366] | – | – | – | – | inhibition at 10 µM (A549, read-out: TGFβ inhibition rate, %): 100%
CCc1nc2ncccc2cc1Oc1ccnc2cc(OC)c(OC)cc12 [Compound r423] | 88 | 100 | – | – | –
c1ccc(-c2nc3ncccc3cc2Oc2ccnc3ccccc23)cc1 [Compound 52, 2-Phenyl-3-(quinolin-4-yloxy)-[1,8]naphthyridine] | – | – | – | – | inhibition at 3 µM [1]: 96%; inhibition at 10 µM [2]: 100%
Clc1ccc2nccc(Oc3cc4cccnc4nc3-c3ccccc3)c2c1Cl [Compound 57, 3-(5,6-Dichloro-quinolin-4-yloxy)-2-phenyl-[1,8]naphthyridine] | – | – | – | – | inhibition at 3 µM [1]: 75%; inhibition at 10 µM [2]: 100%
COc1cc2nccc(Oc3cc4ccccc4nc3-c3ccc(F)cc3F)c2cc1OC [r286] | 93 | 100 | – | – | –
COc1cc2c(Oc3cc(C)c(C)nc3-c3cccc(C)n3)ccnc2cc1OCCO [Compound r450] | 94 | 100 | – | – | –
Cc1ccc(Oc2ccnc3ccc(OCCCN4CCN(c5ccccn5)CC4)cc23)c(-c2ncccn2)n1 [Compound 218, 4-(6-Methyl-2-pyrimidin-2-yl-pyridin-3-yloxy)-6-[3-(4-pyridin-2-yl-piperazin-1-yl)-propoxy]-quinoline] | – | – | – | – | inhibition at 3 µM [1]: 84%; inhibition at 10 µM [2]: 100%
COc1cc2c(Oc3ccc(C)cc3C(=O)c3ccccc3)ccnc2cc1OCC(O)CN1CCC(CO)CC1 (stereo not drawn) [r154] | – | – | 99 | 100 | –
COc1cc2nccc(Oc3ccc4ccccc4c3)c2cc1OC [Compound r17] | – | – | 15 | 80 | –
COc1cc2nccc(Oc3ccc(SC)nc3-c3ccccn3)c2cc1OC [Compound r266] | 92 | 100 | – | – | –
CCOC(=O)c1cc(OC)ccc1Oc1ccnc2cc(OC)c(OC)cc12 [Compound r91] | – | – | 96 | 100 | –
COc1cc2c(Oc3ccc(C)cc3C(=O)c3ccccc3)ccnc2cc1OCCCNCCO [Compound r133] | – | – | 100 | 100 | –
Cc1ccc(Oc2ccnc3ccc(OCCCN(C)CCO)cc23)c(-c2ncccn2)n1 [Compound 211, 2-(Methyl-{3-[4-(6-methyl-2-pyrimidin-2-yl-pyridin-3-yloxy)-quinolin-6-yloxy]-propyl}-amino)-ethanol] | – | – | – | – | inhibition at 3 µM [1]: 54%
COc1cc2nccc(Oc3ccc(C)nc3-c3ccc(Oc4ccccc4)cc3)c2cc1OC [Compound r250] | 34 | 81 | – | – | –
COc1ccc2c(Oc3cc(C)c(C)nc3-c3ccccn3)ccnc2c1 [Compound 16, 3-(7-Methoxy-quinolin-4-yloxy)-5,6-dimethyl-[2,2']bipyridine] | – | – | – | – | inhibition at 1 µM [7]: 97%; inhibition at 3 µM [1]: 100%
CCc1ccc(Oc2ccnc3ccccc23)c(-c2ncccn2)n1 [Compound 117, 4-(6-Ethyl-2-pyrimidin-2-yl-pyridin-3-yloxy)-quinoline] | – | – | – | – | inhibition at 3 µM [1]: 96%; inhibition at 10 µM [2]: 100%
COc1ccc(C(=O)c2ccc(C)cc2)c(Oc2ccnc3cc(OC)c(OC)cc23)c1 [Compound r65] | – | – | 58 | 100 | –
COc1cc2nccc(Oc3cccc(C(=O)c4ccccc4)c3)c2cc1OC [r77] | – | – | 0 | 46 | –
COc1cc2nccc(Oc3ccccc3C(=O)OCc3ccccc3)c2cc1OC [r103] | – | – | 20 | 84 | –
CCOc1ccc(Oc2ccnc3cc(OC)c(OC)cc23)c(C(C)=O)c1 [Compound r178, 1-[2-(6,7-Dimethoxy-quinolin-4-yloxy)-5-ethoxy-phenyl]-ethanone] | 66 | 97 | – | – | –
COc1ccc2ncnc(Oc3cc(C)c(C)nc3-c3ccccn3)c2c1 [Compound 26, 4-(5,6-Dimethyl-[2,2']bipyridin-3-yloxy)-6-methoxy-quinazoline] | – | – | – | – | inhibition at 3 µM [1]: 83%; inhibition at 10 µM [2]: 99%
COc1cc2nccc(Oc3ccc(C)nc3-c3cccnc3)c2cc1OC [Compound r262] | 91 | 100 | – | – | –
